Measured values: patent publication US8637521B2, “Substituted piperazin-2,5-diones and their use as multifunctional bioactive compounds” (priority 2006, dated 2014)
Where “and” joins values, the source holds several entries; their conditions need not be identical. Equal entries are not always repeated.

Columns and labels:
[1] = test system: antibodies to ovalbumin; experiment: Adjuvant activity with ovalbumin immunization (Example 7); format: in vivo, mice; conditions: Table 6
Protocol: Adjuvant activity was tested on 6 groups of mice. Each group consisted of 5 animals. Three immunizations were performed as follows:
• 1. Mouse Nos. 1 to 5—Complete Freund's adjuvant (CFA=control) • 2. Mouse Nos. 6 to 10—ovalbumin (OVA egg) 25 micrograms per animal+adjuvant 100 micrograms per animal • 3. Mouse Nos. 11 to 15—ovalbumin 25 micrograms per animal+CFA • 4. Mouse Nos. 16 to 20—ovalbumin 25 micrograms per animal • 5. Mouse Nos. 21 to 25—ovalbumin 25 micrograms per animal+adjuvant 1 microgram per animal • 6. Mouse Nos. 26 to 30—ovalbumin 25 micrograms per animal+adjuvant 10 micrograms per animal Second Immunization:
The same set 21 days after first immunization by injection of 12.5 micrograms of ovalbumin/mouse to mouse nos. 6 to 30.
The same set 35 days after first immunization by injection of 12.5 microgram of ovalbumin/mouse to mouse nos. 6 to 30.
On day 42, blood samples from each mouse were collected. The stimulation index of each group was compared. The stimulation index was calculated by dividing the test pooled sera dilution yielding OD=1 by the dilution of pooled sera from mice immunized without the adjuvant, yielding OD=1.

[2] = test system: Anti-OVA antibody titers; experiment: Adjuvant activity, anti-OVA antibody titers by ELISA (Example 8); format: in vivo, Balb/c mice; conditions: for Pool: pooled sera titer
Protocol: Adjuvant activity was tested on 11 groups of Balb/c mice (obtained from Stolbovaya Breeding Station). Each group consisted of 7 animals. Three immunizations were performed as follows:
• Group 1—ovalbumin 25 micrograms per animal (Mouse Nos. 1 to 7) • Group 2—ovalbumin 25 micrograms per animal+CFA (Complete Freund's adjuvant) (Mouse Nos. 8 to 14) • Group 3—ovalbumin 25 micrograms per animal+adjuvant of compound 33a 100 micrograms per animal (Mouse Nos. 15 to 21) • Group 4—ovalbumin 25 micrograms per animal+adjuvant of compound 33a 10 micrograms per animal (Mouse Nos. […]) • Group 5—ovalbumin 25 micrograms per animal+adjuvant of compound 33a 1 microgram per animal (Mouse Nos. […]) • Group 6—ovalbumin 25 micrograms per animal+adjuvant of compound 33b 100 micrograms per animal (No. 36 to 42) • Group 7—ovalbumin 25 micrograms per animal+adjuvant of compound 33b 10 micrograms per animal (Mouse Nos. 43 to 49) • Group 8—ovalbumin 25 micrograms per animal+adjuvant of compound 33b 1 microgram per animal (Mouse Nos. 50 to 56) • Group 9—ovalbumin 25 micrograms per animal+adjuvant of compound 17 100 micrograms per animal (Mouse Nos. 57 to 63) • Group 10—ovalbumin 25 micrograms per animal+adjuvant of compound 1710 micrograms per animal (Mouse Nos. 64 to 70) • Group 11—ovalbumin 25 micrograms per animal+adjuvant of compound 171 microgram per animal (Mouse Nos. 71 to 77) Second Immunization:
The same set 14 days after first immunization by injection of 12.5 micrograms of ovalbumin/mouse to mouse nos. 1 to 77.
The same set 28 days after first immunization by injection of 12.5 micrograms of ovalbumin/mouse to mouse nos. 1 to 77.
On day 35 after first immunization, blood samples from each mouse were collected.
OVA (10 micrograms/ml) solution in 0.05 M sodium carbonate buffer (pH 9.5) was added to plate wells, 0.1 ml per well and incubated at 4° C. for 16 hours. The OVA solution was then removed and the plate was washed 4 times with PBS containing 0.05% Tween-20. Such washing was performed after each incubation stage. Serial twofold dilutions of sera (starting from 1:100 or 1:1000) were added to the wells, 0.1 ml per well and incubated at 37° C. for 1 hour followed by incubation (1 hour, 37° C.) with HRP-conjugated goat anti-mouse IgG antibodies (0.1 ml, 1 mg/ml in PBS) and then with a 0.1 mL substrate solution −0.05% H2O2 and 0.05% o-phenylene diamine in 0.05M sodium citrate buffer with a pH of 4.5. The reaction was stopped by adding 100 μl of 12.5% H2SO4. Absorbance was measured at a wavelength of 492 nm using a Multiscan Plus MKII (Flow Laboratories, Great Britain). Significant anti-protein antibody titer (for individual sera) was assessed as the serum dilution produced an absorbance value of more than 0.1 ODU and the minimum exceeds three times the control level. The antibody titer was presented and −log of dilution (FIGS. 2 and 3). The stimulation index for pooled sera was calculated by dividing the test pooled sera dilution producing OD=1 by the dilution of pooled sera from mice immunized without the adjuvant, producing OD=1. The results of the adjuvant activities of cyclo-L-Ala-L-Glu-(L-Trp-OH) (Compound 17), cyclo-L-Lys(N-acetyl-Glycosamine-N-acetyl-muramil)-L-Glu-(L-Trp-OH) (Compound 33a) and cyclo-D-Lys(N-acetyl-Glycosamine-N-acetyl-muramil)-D-Glu-(L-Trp-OH) (Compound 33b) are shown in Table 7 and the adjuvant activities of cyclo [L-Lys(Palmitoyil)-L-Glu(D-Trp-OH)] (Compound 26a) and cyclo [D-Lys(Palmitoyil)-D-Glu(D-Trp-OH)] (Compound 26b) are shown in Table 8 as well as in FIG. 4 which includes the results of the adjuvant activities of cyclo-L-Lys-L-Glu-(L-Trp-OH) (compound 19). It is noted that the peptides of compounds 26a and 26b are soluble in 0.1% NH4OH at a concentration of 1 mg per 1 to 2 ml.

[3] = test system: hemopoietic precursor cells; experiment: Exogenous spleen colonies from bone marrow irradiated ex vivo with 1 Gy; format: in vivo
Protocol: In this study, the method of exogenous spleen colonies was applied. A suspension of intact bone marrow cells was irradiated ex vivo in the dose of 1 Gy. Different doses of Neogen or cyclic peptides were injected IP, 1M, subcutaneous or introduced per os to lethally irradiated recipients within an hour after the injection of irradiated bone marrow. Colonies were counted on day 8. All data in each group was the mean of three tests.

[4] = test system: CFU-S population in the bone marrow; experiment: Spleen colony formation (CFU-S) by bone marrow cells of peptide-treated intact donor mice; format: in vivo, (CBA×C57 B1) F1 mice; conditions: Table 2, donor treated i/p
Protocol: The effect of tested substances on intact bone marrow was studied in vivo. […] Two days after administration of preparation, the mice were killed. Bone marrow suspension was prepared and injected intravenously to lethally irradiated mice. The colony forming activity was evaluated at day 8. Test animals were (CBA×C57 B1) F1 mice (30 mice per trial, average from 3 tests).

[5] = test system: antibodies to ovalbumin; experiment: Adjuvant activity with ovalbumin immunization (Example 6); format: in vivo, mice (C57B16); conditions: for Stimulation index: Table 5, ovalbumin alone = 1.00
Protocol: Adjuvant activity was tested on 5 groups of mice (C57B16). Each group consisted of 5 animals. Three immunizations were performed:
• 1. Group with Complete Freund's Adjuvant (CFA) • 2. Group with ovalbumin (OVA egg) (25 micrograms/mouse) • 3. Group with CFA+ovalbumin (25 micrograms/mouse) • 4. Group with ovalbumin (25 micrograms/mouse)+peptide 1 microgram/mouse • 5. Group with ovalbumin (25 micrograms/mouse)+peptide 10 micrograms/mouse Second Immunization:
The same set 21 days after first immunization by injection of 12.5 micrograms of ovalbumin/mouse to groups 2-5.
The same set 35 days after first immunization by injection of 12.5 micrograms of ovalbumin/mouse to groups 2-5.
On day 42, the total blood from each mouse was collected. The blood was pooled from each group of mice. The stimulation index of each group was compared. The stimulation index was calculated as a ratio between optical density (OD=1) of diluted pools of groups 3-5 to the optical density (OD=1) of diluted pools of group 2 (control with no adjuvant).

[6] = Solubility of peptides in 0.1% NH4OH; format: physicochemical

C[C@@H]1NC(=O)[C@H](CCC(=O)N[C@@H](Cc2c[nH]c3ccccc23)C(=O)O)NC1=O [Compound 17, cyclo-L-Ala-L-Glu-(L-Trp-OH)]
Stimulation index ([1]; adjuvant 1 microgram per animal): 1.18
Stimulation index ([1]; adjuvant 10 micrograms per animal): 1.74
Stimulation index ([1]; adjuvant 100 micrograms per animal, ovalbumin alone = 1.0): 1.14
adjuvant activity (FIG. 4), doses at which active [2]: active at 1, 10 and 100 μg/kg
Anti-protein antibody titer (pooled sera) ([2]; Table 7, 1 μg per animal): 4.8
Stimulation index ([2]; Table 7, 1 μg per animal): 2.6
Anti-protein antibody titer (pooled sera) ([2]; Table 7, 10 μg per animal): 4.5
Stimulation index ([2]; Table 7, 10 μg per animal): 1.9
Anti-protein antibody titer (pooled sera) ([2]; Table 7, 100 μg per animal, no adjuvant 4.5): 4.8
Stimulation index ([2]; Table 7, 100 μg per animal, no adjuvant = 1): 2.3
Anti-protein antibody titer (for individual sera) ([2]; Table 7, OVA + adjuvant 1 μg per animal, −log of dilution): 5.1 (3×) and 4.2 and 4.5 (2×) and 5.4
Anti-protein antibody titer (for individual sera) ([2]; Table 7, OVA + adjuvant 10 μg per animal, −log of dilution): 4.8 and 4.2 and 4.1 and 4.5 (2×) and 5.4 and 3.9
Anti-protein antibody titer (for individual sera) ([2]; Table 7, OVA + adjuvant 100 μg per animal, titer as −log of dilution, one value per mouse): 4.5 and 4.2 (3×) and 5.1 (2×) and 4.8

C[C@@H]1NC(=O)[C@H](CCC(=O)N[C@@H](Cc2c[nH]c3ccccc23)C(=O)[O-])NC1=O.[Na+] [cyclo-LAla-LGlu-(LTrp-ONa), cyclo-L-Ala-L-Glu-(L-Trp-ONa)]
Colony count ([3]; 10 μg/kg IP, unirradiated 11.9 ± 0.4, 1 Gy alone 6.2 ± 0.6): 8.0 ± 0.4
% stimulation ([3]; 10 μg/kg IP, unirradiated = 100, 1 Gy alone = 0): 67.2%
% stimulation ([3]; 100 μg/kg IP): 80.7%
Colony count ([3]; 100 μg/kg IP): 9.6 ± 0.7
% stimulation ([3]; 100 μg/kg per/os): 98.3%
Colony count ([3]; 100 μg/kg per/os): 11.7 ± 0.6
% suppression [4]: 0%
Colony count CFU-8 - S per 10^5 cells M ± M ([4]; control 11.2 ± 0.4, colonies day 8): 11.7 ± 0.8 per 10^5 cells
Stimulation index ([5]; ovalbumin + peptide 1 μg/mouse (group 4)): 1.18
Stimulation index ([5]; ovalbumin + peptide 10 μg/mouse (group 5)): 1.74
increase of titers of antibodies to ovalbumin ([5]; matches stimulation index 1.74 at 10 μg/mouse): 74%

CCCCCCCCCCCCCCCC(=O)NCCCC[C@@H]1NC(=O)[C@H](CCC(=O)N[C@H](Cc2c[nH]c3ccccc23)C(=O)O)NC1=O [Compound 26a, cyclo [L-Lys(Palmitoyil)-L-Glu(D-Trp-OH)]]
soluble in 0.1% NH4OH at a concentration of ([6]; 0.1% NH4OH): 1 mg per 1 to 2 ml
solubility when titrated with 0.1% AcOH ([6]; titrated with 0.1% AcOH to pH=8.4 to 8.5): remain soluble
adjuvant activity (FIG. 4), doses at which active [2]: active at 10 μg/kg
Stimulation index ([2]; Table 8, 1 μg per animal): 2.0
Stimulation index ([2]; Table 8, 10 μg per animal): 6.5
Stimulation index ([2]; Table 8, 100 μg per animal, no adjuvant = 1): 3.3
Anti-protein antibody titer ([2]; Table 8, OVA + adjuvant 1 μg per animal, one value per mouse): 4.8 and 5.1 (4×) and 4.5 and 4.4
Anti-protein antibody titer ([2]; Table 8, OVA + adjuvant 10 μg per animal, one value per mouse): 5.5 (4×) and 5.8 and 5.7 (2×)
Anti-protein antibody titer ([2]; Table 8, OVA + adjuvant 100 μg per animal, one value per mouse): 4.8 (4×) and 4.4 and 5.1 and 5.4
Pool ([2]; Table 8, 1 μg per animal): 4.4
Pool ([2]; Table 8, 10 μg per animal): 5.7
Pool ([2]; Table 8, 100 μg per animal, no adjuvant 3.9): 5.1
